Converted amounts (≈) assume the structure as drawn. “Also recorded” adds a separate entry of the source. Where two headings read alike, the source gives them in different places.
What was measured:
Assay type in all cases: physicochemical
[1] = Hygroscopicity by dynamic vapor sorption (DVS)
Experimental: Hygroscopicity was determined on a Surface Measurement Systems DVS. Typically a sample size of 2-10 mg was loaded into the DVS instrument sample pan and the sample was analyzed on a DVS automated sorption analyzer at room temperature. […] The relative humidity was then decreased in a similar manner to accomplish a full adsorption/desorption cycle. For selected hydrated forms, the analysis started at 50% RH and increased to 90% RH at 10% RH step. The relative humidity was then decreased in a similar manner to 0% RH followed by increasing to 50% RH.

[2] = Form transfer / competitive slurry experiments
Experimental: The resulting mixture was agitated for at least 24 hours at room temperature and 50° C. separately. Upon reaching equilibrium, the saturated supernatant solution was removed and allowed to evaporate slowly in an open vial under nitrogen at room temperature and 50° C., respectively. The solid resulting from the equilibration was filtered and air-dried before analysis.

[3] = Equilibration / slurry experiments of Form A (XRPD)
Experimental: (§1) All of the solid samples generated in the polymorph screen were analyzed by XRPD. XRPD analysis was conducted on a Thermo ARL X'TRA X-ray powder diffractometer using Cu Kα radiation at 1.54 Å. The instrument was equipped with a fine focus X-ray tube. The voltage and amperage of the X-ray generator were set at 45 kV and 40 mA, respectively. The divergence slits were set at 4 mm and 2 mm and the measuring slits were set at 0.5 mm and 0.2 mm. Diffracted radiation was measured using a Peltier-cooled Si (Li) solid-state detector. A theta-two theta continuous scan at 2.40/min (0.5 sec/0.02° step) from 1.5° to 40° 2θ was used. A sintered alumina standard was used to check the peak positions. […] The resulting mixture was agitated for at least 24 hours at room temperature and 50° C. separately. Upon reaching equilibrium, the saturated supernatant solution was removed and allowed to evaporate slowly in an open vial under nitrogen at room temperature and 50° C., respectively. The solid resulting from the equilibration was filtered and air-dried before analysis.

[4] = Evaporation experiments (XRPD); conditions: evaporation at 50° C.
Experimental: as §1

[5] = Solubility of Form A in selected aqueous and organic solvents (HPLC); conditions: thermodynamic from solid, read-out: Solubility (mg/mL) (room temperature)
Experimental: Solubility of Form A in selected aqueous and organic solvents was determined by mixing solid with solvents at room temperature. […] Solubility of Form B and Form C in water was also determined by the same HPLC method.

[6] = slurry in MeOH/water (1:1), seed None, 1 week
[7] = humidity from about 0% to about 50% RH at about 25° C.
[8] = humidity from about 0% to about 95% RH at about 25° C.
[9] = humidity increased from about 0% to about 80% RH
[10] = humidity increased from about 80% to about 90% RH

## CCN1C(=O)CNc2ncc(-c3ccc(-c4nnc[nH]4)nc3C)nc21 [Form C, 1-ethyl-7-(2-methyl-6-(1H-1,2,4-triazol-3-yl)pyridin-3-yl)-3,4-dihydropyrazino[2,3-b]pyrazin-2(1H)-one]
[1]; listed as C
  Moisture sorption (wt % at 90% RH): 12.2 wt %
[2]; slurry in H2O, seed None, 1 week
  XRPD Result: Form C
[2]; [6]
  XRPD Result: Form C

## CCN1C(=O)CNc2ncc(-c3ccc(-c4nnc[nH]4)nc3C)nc21 [Form B, 1-ethyl-7-(2-methyl-6-(1H-1,2,4-triazol-3-yl)pyridin-3-yl)-3,4-dihydropyrazino[2,3-b]pyrazin-2(1H)-one]
[1]; listed as B
  Moisture sorption (wt % at 90% RH): 20.7 wt %
[2]; slurry in Acetonitrile, seed None, 3 days
  XRPD Result: Form A

## CCN1C(=O)CNc2ncc(-c3ccc(-c4nnc[nH]4)nc3C)nc21 [Form E, 1-ethyl-7-(2-methyl-6-(1H-1,2,4-triazol-3-yl)pyridin-3-yl)-3,4-dihydropyrazino[2,3-b]pyrazin-2(1H)-one]
[1]
  Moisture sorption (wt % at 90% RH): 5.9 wt %
[1]; [7]
  weight gain: about 2.3 % w/w
[1]; [8]
  weight gain: about 5.8 % w/w
[1]; [9]
  mass gain: less than 4 % w/w
[1]; [10]
  mass gain: about 1.1 % w/w
[2]; slurry in Acetonitrile, seed None, 1 week
  XRPD Result: Form A
[2]; [6]
  XRPD Result: Form C

## CCN1C(=O)CNc2ncc(-c3ccc(-c4nnc[nH]4)nc3C)nc21 [Form A, 1-ethyl-7-(2-methyl-6-(1H-1,2,4-triazol-3-yl)pyridin-3-yl)-3,4-dihydropyrazino[2,3-b]pyrazin-2(1H)-one]
[3]; equilibration at room temperature, 2-Propanol
  XRPD Result 24 hours: Form A
[3]; equilibration at room temperature, Acetone
  XRPD Result 24 hours: Form A
[3]; equilibration at room temperature, Acetonitrile
  XRPD Result 24 hours: Form A
[3]; equilibration at room temperature, Ethanol
  XRPD Result 24 hours: Form A
[3]; equilibration at room temperature, Ethanol/Water (1:1)
  XRPD Result 24 hours: Form A
[3]; equilibration at room temperature, Ethyl acetate
  XRPD Result 24 hours: Form A
[3]; equilibration at room temperature, Heptane
  XRPD Result 24 hours: Form A
[3]; equilibration at room temperature, Methanol
  XRPD Result 24 hours: Form A
[3]; equilibration at room temperature, Methyl ethyl ketone
  XRPD Result 24 hours: Form A
[3]; equilibration at room temperature, Methyl t-butyl ether
  XRPD Result 24 hours: Form A
[3]; equilibration at room temperature, Methylene chloride
  XRPD Result 24 hours: Form A
[3]; equilibration at room temperature, Tetrahydrofuran
  XRPD Result 24 hours: Form A
[3]; equilibration at room temperature, Toluene
  XRPD Result 24 hours: Form A
[3]; equilibration at room temperature, Water
  XRPD Result 24 hours: Form A
[3]; equilibration at room temperature, n-Butanol
  XRPD Result 24 hours: Form A
[3]; slurry at 50° C., 2-Propanol
  XRPD Result 24 hours: Form A
[3]; slurry at 50° C., Acetone
  XRPD Result 24 hours: Form A
[3]; slurry at 50° C., Acetonitrile
  XRPD Result 24 hours: Form A
[3]; slurry at 50° C., Ethanol
  XRPD Result 24 hours: Form A
[3]; slurry at 50° C., Ethanol/Water (1:1)
  XRPD Result 24 hours: Form A
[3]; slurry at 50° C., Ethyl acetate
  XRPD Result 24 hours: Form A
[3]; slurry at 50° C., Heptane
  XRPD Result 24 hours: Form A
[3]; slurry at 50° C., Methanol
  XRPD Result 24 hours: Form A
[3]; slurry at 50° C., Methyl ethyl ketone
  XRPD Result 24 hours: Form A
[3]; slurry at 50° C., Tetrahydrofuran
  XRPD Result 24 hours: Form A
[3]; slurry at 50° C., Toluene
  XRPD Result 24 hours: Form A
[3]; slurry at 50° C., Water
  XRPD Result 24 hours: Form A
[3]; slurry at 50° C., n-Butanol
  XRPD Result 24 hours: Form A
[1]; DVS, in words
  hygroscopicity: non-hygroscopic; also recorded: not hygroscopic
[1]
  Moisture sorption (wt % at 90% RH): 0.4 wt %
[1]; [7]
  weight gain: about 0.2 % w/w
[1]; [8]
  weight gain: about 0.5 % w/w
[1]; [9]
  mass gain: less than 0.35 % w/w
[1]; [10]
  mass gain: about 0.08 % w/w
[2]; slurry in Acetonitrile, seed None, 2 weeks
  XRPD Result: Form A
[2]; slurry in EtOH/H2O (1:1), seed Form B, 1 week
  XRPD Result: Form A
[2]; slurry in EtOH/H2O (1:1), seed Form C, 1 week
  XRPD Result: Form A
[2]; slurry in Ethanol/Water (1:1), seed None, 2 weeks
  XRPD Result: Form A
[2]; slurry in H2O, seed Form B, 1 week
  XRPD Result: Form A
[2]; slurry in H2O, seed Form C, 7 weeks
  XRPD Result: Form A + C
[2]; slurry in H2O, seed None, 2 weeks
  XRPD Result: Form A
[2]; slurry in MTBE, seed None, 2 weeks
  XRPD Result: Form A
[2]; slurry in MeOH, seed Form B, 1 week
  XRPD Result: Form A
[2]; slurry in MeOH, seed Form C, 1 week
  XRPD Result: Form A
[2]; slurry in MeOH, seed None, 2 weeks
  XRPD Result: Form A
[4]; Methanol
  XRPD Result: Form A + B
[4]; Tetrahydrofuran
  XRPD Result: Amorphous, degraded
[5]; 0.1N HCl, simulated gastric fluid
  solubility at 24 h: 7.1 mg/mL (≈ 21100 µM)
[5]; 0.9% NaCl, saline or isotonic
  solubility at 24 h: 0.03 mg/mL (≈ 89.2 µM)
[5]; acetone, organic solvent or mixture
  solubility at 24 h: 0.46 mg/mL (≈ 1370 µM)
[5]; acetonitrile, organic solvent or mixture
  solubility at 24 h: 0.14 mg/mL (≈ 416 µM)
[5]; aqueous buffer, Acetate buffer pH 4.0
  solubility at 24 h: 0.06 mg/mL (≈ 178 µM)
[5]; aqueous buffer, Phosphate buffer pH 6.8
  solubility at 24 h: 0.05 mg/mL (≈ 149 µM)
[5]; ethanol, organic solvent or mixture
  solubility at 24 h: 0.5 mg/mL (≈ 1490 µM)
[5]; ethyl acetate, organic solvent or mixture
  solubility at 24 h: 0.32 mg/mL (≈ 951 µM)
[5]; heptane, organic solvent or mixture
  solubility at 24 h: < 0.005 mg/mL
[5]; isopropanol, organic solvent or mixture
  solubility at 24 h: 0.28 mg/mL (≈ 832 µM)
[5]; methanol, organic solvent or mixture
  solubility at 24 h: 1.13 mg/mL (≈ 3360 µM)
[5]; organic solvent or mixture, Dimethyl Sulfoxide, estimated from visual observation of complete dissolution
  solubility: > 50 mg/mL
[5]; tetrahydrofuran, organic solvent or mixture
  solubility at 24 h: 5.5 mg/mL (≈ 16400 µM)
[5]; Water, room temperature, 24 hours
  solubility at 24 h: 0.08 mg/mL (≈ 238 µM)

— patent publication US10052322B2 (SIGNAL PHARMACEUTICALS, LLC, priority 2013, dated 2018)
